Measured values taken from US5541181A, “Compound produced by a strain of micromonospora” (Bristol-Myers Squibb Company, priority 1994, dated 1996).
Values after ≈ are worked out from the molar mass of the structure shown. Where two headings read alike, the source gives them in different places.

Columns and labels:
HCT-116 cells = experiment: In vitro cytotoxicity, HCT-116 (human colon carcinoma), neutral red, 72 hours; format: cell-based; conditions: for IC50: Homo sapiens, HCT-116, 72 hours; for cytotoxicity: HCT-116, compared with BU-4664L
Protocol: (§1) In Vitro Cytoxicity. B16-F10 (murine melanoma) and Moser (human colorectal carcinoma) were grown in Eagle's minimum essential medium (Nissui) supplement with fetal calf serum (FCS, 10%) and kanamycin (60 μg/ml), HCT-116 (human colon carcinoma) cells were grown in McCoy's 5A Medium (Gibco) supplemented with FCS (10%), penicillin (100 u/ml) and streptomycin (100 μg/ml), and K562 (human myelogenous leukemia) were in RPM 11640 medium supplemented with FCS (10%), penicillin (100 u/ml) and streptomycin (100 μg/ml) at 37° C. under humidified atmosphere in a CO2 incubator. The exponentially growing B16-F10, Moser, K562 and HCT-116 cells were harvested, counted and suspended in the culture media at 1.5×10^4, 6×10^4, 3×10^4 and 8×10^4 cells/ml, respectively. The test materials were planted into the wells of 96 or 24-well tissue culture plate and for 72 hours. The cytotoxic activities were colorimetrically determined at 540 nm after staining viable cells with neutral red solution.

B16-F10 cells = experiment: In vitro cytotoxicity, B16-F10 (murine melanoma), neutral red, 72 hours; format: cell-based; conditions: for IC50: Mus musculus, B16-F10, 72 hours; for cytotoxicity: B16-F10, compared with BU-4664L
Protocol: as §1

K562 cells = experiment: In vitro cytotoxicity, K562 (human myelogenous leukemia), neutral red, 72 hours; format: cell-based; conditions: K562, 72 hours
Protocol: as §1

Moser cells = experiment: In vitro cytotoxicity, Moser (human colorectal carcinoma), neutral red, 72 hours; format: cell-based
Protocol: as §1

5-lipoxygenase (5-LPO) = target: T1, 5-lipoxygenase (5-LPO) (Rattus norvegicus, UniProt P12527); experiment: 5-Lipoxygenase (5-LPO) inhibitory activity: 5-HETE produced in a cell-free extract of rat basophilic leukemia (RBL-1) cells; format: biochemical
T1 construct: produced in a cell-free extract of rat basophilic leukemia cells (RBL-1 cells, ATCC CRL 1378); endogenous in cells; host or cells: RBL-1 cells (rat basophilic leukemia), ATCC CRL 1378; cell-free extract
T1 sequence (P12527 1-673): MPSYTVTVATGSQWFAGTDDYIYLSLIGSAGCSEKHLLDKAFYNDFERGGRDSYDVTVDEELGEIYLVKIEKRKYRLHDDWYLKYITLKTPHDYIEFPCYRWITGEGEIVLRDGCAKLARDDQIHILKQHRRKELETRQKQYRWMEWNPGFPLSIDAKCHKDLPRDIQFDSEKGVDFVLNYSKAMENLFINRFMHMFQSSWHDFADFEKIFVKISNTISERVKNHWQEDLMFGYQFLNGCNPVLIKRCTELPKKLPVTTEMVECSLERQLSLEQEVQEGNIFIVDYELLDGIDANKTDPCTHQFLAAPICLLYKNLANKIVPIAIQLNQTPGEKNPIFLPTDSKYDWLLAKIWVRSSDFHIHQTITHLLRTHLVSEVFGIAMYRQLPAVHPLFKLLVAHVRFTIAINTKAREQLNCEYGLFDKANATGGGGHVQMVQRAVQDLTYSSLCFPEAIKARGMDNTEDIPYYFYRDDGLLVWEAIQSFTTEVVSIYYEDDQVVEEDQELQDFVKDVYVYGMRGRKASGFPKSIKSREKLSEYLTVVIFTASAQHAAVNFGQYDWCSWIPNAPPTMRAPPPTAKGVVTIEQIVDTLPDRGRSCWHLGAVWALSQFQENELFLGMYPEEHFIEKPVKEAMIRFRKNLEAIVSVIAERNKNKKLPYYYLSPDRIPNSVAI
Protocol: 20-Jar Fermentation. A 5-ml portion of the seed culture was transferred into a 500-ml Erlenmeyer flask containing 100 ml of the seed medium described above. Fermentation was carried out for 3 days at 28° C. and 200 rpm. This seed culture (500 ml) was inoculated into a 20-liter jar fermentor containing 12 liters of the production medium composed of soluble starch 2%, Pharmamedia (Trader's Protein) 1%, yeast extract 0.2%, ZnSO4 ·7H2 O 0.003% and CaCO3 0.4% (pH 7.0) and fermented for 3 days under the following conditions: temperature, 28° C.; aeration, 10 liters/minute; internal pressure, 0.5 kg/cm^2; agitation, 250 rpm. For preparation of an assay sample, a 3-ml of the whole broth was extracted with the same volume of n-butanol. After centrifugation, the solvent layer was evaporated to dryness and dissolved into the same volume of 10% dimethylsulfoxide (DMSO) solution. The solution was used as an assay sample.

Solubility = format: physicochemical
[1] = system: K562, B16-F10 and Moser cells; experiment: In vitro cytotoxicity, range over K562, B16-F10 and Moser; format: cell-based, murine and human; conditions: vs K562, B16-F10 and Moser; read-out: IC50 (inhibited growth of tumor cell lines), range
Protocol: as §1

P388 leukemia = format: in vivo, mouse; conditions: ip; for T/C: ≥ 125 significantly active; for Avg Weight change on day 4: mouse, in vivo
Protocol: (§2) B16 melanoma was intraperitoneally (ip) inoculated with 0.5 ml of 10% brei per male BDF1 mouse, and P388 leukemia intraperitoneally inoculated with 10^6 cells per female CDF1 mouse. The test materials were intraperitoneally administered to the tumor-bearing mice by the following treatment schedules: once daily on days 1 to 3 (Q1D×3), once a day on days 1, 4, and 7 (Q3D×3) and once a day on days 1, 5 and 9 (Q4D×3).
(§3) The in vivo antitumor activity was determined in tumor-bearing mice.

B16 melanoma = format: in vivo, mouse; conditions: ip; for MST (Median survival time) / T/C: Q4D × 3; for Avg Weight change on day 5: mouse, in vivo
Protocol: as §2, §3

[2] = Table 8, rat 5-LPO, read-out: IC50 (5-Lipoxygenase Inhibitory Activity)

CC(C)=CCC/C(C)=C/CC/C(C)=C/CN1c2cc(O)cc(O)c2NC(=O)c2cccc(O)c21 [BU-4664L, 5-farnesyl-4,7,9-trihydroxy dibenzo[b,e][1,4]diazepin-11-one]
IC50 (HCT-116 cells): 2.6 µg/mL (≈ 5.62 µM)
IC50 (B16-F10 cells): 1.9 µg/mL (≈ 4.11 µM)
IC50 (K562 cells): 1.1 µg/mL (≈ 2.38 µM)
IC50 (Moser cells): 18 µg/mL (≈ 38.9 µM)
5-LPO inhibitory activity (5-lipoxygenase (5-LPO); rat 5-LPO): good 5-LPO inhibitory activity
IC50 (5-lipoxygenase (5-LPO); rat 5-LPO, read-out: IC50 (5-LPO inhibitory activity)): 1.7 µM
solubility (Solubility; chloroform): slightly soluble
solubility (Solubility; dimethyl sulfoxide): soluble
solubility (Solubility; ethanol): soluble
solubility (Solubility; ethyl acetate): soluble
solubility (Solubility; methanol): soluble
solubility (Solubility; n-hexane): insoluble
solubility (Solubility; water): insoluble
IC50 [1]: 1.1 to 18 µg/mL (≈ 2.38 to 38.9 µM)
T/C values against P388 leukemia (P388 leukemia): good T/C values
survival time of mice inoculated with P388 (P388 leukemia): significant prolongation of the survival time
MST (Median survival time) (P388 leukemia; 0.3 mg/kg/day, Q1D × 3): 12.0 days
T/C (P388 leukemia; 0.3 mg/kg/day, Q1D × 3): 120%
MST (Median survival time) (P388 leukemia; 1 mg/kg/day, Q1D × 3): 11.0 days
T/C (P388 leukemia; 1 mg/kg/day, Q1D × 3): 110%
MST (Median survival time) (P388 leukemia; 1 mg/kg/day, Q3D × 3): 11.9 days
T/C (P388 leukemia; 1 mg/kg/day, Q3D × 3): 119%
MST (Median survival time) (P388 leukemia; 3 mg/kg/day, Q1D × 3): 13.0 days
T/C (P388 leukemia; 3 mg/kg/day, Q1D × 3): 130%
MST (Median survival time) (P388 leukemia; 3 mg/kg/day, Q3D × 3): 15.2 days
T/C (P388 leukemia; 3 mg/kg/day, Q3D × 3): 152%
MST (Median survival time) (P388 leukemia; 10 mg/kg/day, Q1D × 3): 15.0 days
T/C (P388 leukemia; 10 mg/kg/day, Q1D × 3): 150%
MST (Median survival time) (P388 leukemia; 10 mg/kg/day, Q3D × 3): 16.2 days
T/C (P388 leukemia; 10 mg/kg/day, Q3D × 3): 162%
MST (Median survival time) (P388 leukemia; 30 mg/kg/day, Q1D × 3): 16.0 days
T/C (P388 leukemia; 30 mg/kg/day, Q1D × 3): 160%
MST (Median survival time) (P388 leukemia; 30 mg/kg/day, Q3D × 3): 12.5 days
T/C (P388 leukemia; 30 mg/kg/day, Q3D × 3): 152%
Avg Weight change on day 4 (P388 leukemia; 0.3 mg/kg/day): +0.5 g
survival time of mice inoculated with B16 melanoma (B16 melanoma): significant prolongation of the survival time
MST (Median survival time) (B16 melanoma; 3 mg/kg/day): 16.5 days
T/C (B16 melanoma; 3 mg/kg/day): 127%
MST (Median survival time) (B16 melanoma; 10 mg/kg/day): 17.5 days
T/C (B16 melanoma; 10 mg/kg/day): 135%
MST (Median survival time) (B16 melanoma; 30 mg/kg/day): 17.0 days
T/C (B16 melanoma; 30 mg/kg/day): 131%
activity against B16 melanoma in terms of minimum effective dose (B16 melanoma; compared with Mitomycin C): weaker than Mitomycin C
Avg Weight change on day 5 (B16 melanoma; 3 mg/kg/day): +0.3 g
Avg Weight change on day 5 (B16 melanoma; 10 mg/kg/day): +0.3 g
Avg Weight change on day 5 (B16 melanoma; 30 mg/kg/day): -0.8 g

CO[C@@]12[C@H](COC(N)=O)C3=C(C(=O)C(C)=C(N)C3=O)N1C[C@@H]1N[C@@H]12 [Mitomycin C, reference compound]
MST (Median survival time) (P388 leukemia; 0.3 mg/kg/day, Q1D × 3): 12.5 days
T/C (P388 leukemia; 0.3 mg/kg/day, Q1D × 3): 119%
MST (Median survival time) (P388 leukemia; 1 mg/kg/day, Q1D × 3): 16.0 days
T/C (P388 leukemia; 1 mg/kg/day, Q1D × 3): 152%
MST (Median survival time) (P388 leukemia; 3 mg/kg/day, Q1D × 3): 21.0 days
T/C (P388 leukemia; 3 mg/kg/day, Q1D × 3): 200%
Avg Weight change on day 4 (P388 leukemia; 0.3 mg/kg/day): +0.3 g
Avg Weight change on day 4 (P388 leukemia; 1 mg/kg/day): 0.0 g
Avg Weight change on day 4 (P388 leukemia; 3 mg/kg/day): -1.5 g
MST (Median survival time) (B16 melanoma; 0.5 mg/kg/day): 16.0 days
T/C (B16 melanoma; 0.5 mg/kg/day): 123%
MST (Median survival time) (B16 melanoma; 1 mg/kg/day): 22.5 days
T/C (B16 melanoma; 1 mg/kg/day): 173%
MST (Median survival time) (B16 melanoma; 2 mg/kg/day): 26.7 days
T/C (B16 melanoma; 2 mg/kg/day): 204%
Avg Weight change on day 5 (B16 melanoma; 0.5 mg/kg/day): +0.8 g
Avg Weight change on day 5 (B16 melanoma; 1 mg/kg/day): +0.5 g
Avg Weight change on day 5 (B16 melanoma; 2 mg/kg/day): +0.3 g

CC(=O)Oc1cc(OC(C)=O)c2c(c1)N(C/C=C(\C)CC/C=C(\C)CCC=C(C)C)c1c(OC(C)=O)cccc1C(=O)N2 [Triacetyl BU-4664L]
cytotoxicity (HCT-116 cells): weaker cytotoxicity
IC50 (HCT-116 cells): 4.4 µg/mL (≈ 7.47 µM)
cytotoxicity (B16-F10 cells): weaker cytotoxicity
IC50 (B16-F10 cells): 2.4 µg/mL (≈ 4.08 µM)
IC50 (5-lipoxygenase (5-LPO); [2]): > 34 µM
5-LPO inhibitory activity (5-lipoxygenase (5-LPO); rat 5-LPO): seemed to be devoid of 5-LPO inhibitory activity

COc1cc(OC)c2c(c1)N(C/C=C(\C)CC/C=C(\C)CCC=C(C)C)c1c(OC)cccc1C(=O)N2 [Trimethyl BU-4664L]
cytotoxicity (HCT-116 cells): weaker cytotoxicity
IC50 (HCT-116 cells): 12.5 µg/mL (≈ 24.8 µM)
cytotoxicity (B16-F10 cells): weaker cytotoxicity
IC50 (B16-F10 cells): 21 µg/mL (≈ 41.6 µM)
IC50 (5-lipoxygenase (5-LPO); [2]): > 39.6 µM
5-LPO inhibitory activity (5-lipoxygenase (5-LPO); rat 5-LPO): seemed to be devoid of 5-LPO inhibitory activity
